In BindingDB's records for PubMed 9694962 (Memorial Sloan-Kettering Cancer Center, 1998):
“And” between values parts separate entries of the source, which are not always exact repeats. Equal values may be shown once. Where a SMILES comes first, the peptide text is derived from it.

target: Mu-type opioid receptor (Bos taurus, UniProt P79350)
Sequence (P79350 whole entry): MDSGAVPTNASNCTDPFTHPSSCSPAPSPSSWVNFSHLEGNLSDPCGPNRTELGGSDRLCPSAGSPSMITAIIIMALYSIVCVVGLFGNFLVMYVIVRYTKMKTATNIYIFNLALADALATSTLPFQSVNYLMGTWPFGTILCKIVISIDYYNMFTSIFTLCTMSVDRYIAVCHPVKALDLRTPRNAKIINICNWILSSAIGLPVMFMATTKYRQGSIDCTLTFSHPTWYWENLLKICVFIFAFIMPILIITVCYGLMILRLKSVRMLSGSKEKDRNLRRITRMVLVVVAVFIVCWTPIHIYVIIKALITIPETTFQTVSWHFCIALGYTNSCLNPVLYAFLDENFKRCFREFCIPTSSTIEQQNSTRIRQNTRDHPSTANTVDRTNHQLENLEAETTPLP

Row | Compound | Ki
1 | NC(=O)[C@H](Cc1ccccc1)NC(=O)[C@H](Cc1ccccc1)NC(=O)[C@@H]1CCCN1C(=O)[C@@H](N)Cc1ccc(O)cc1 | 0.43 nM and 4 nM
2 | NC(=O)[C@H](Cc1ccccc1)NC(=O)[C@H](Cc1c[nH]c2ccccc12)NC(=O)[C@@H]1CCCN1C(=O)[C@@H](N)Cc1ccc(O)cc1 [Endomorphin 1] | 0.67 nM and 3.2 nM

target: Mu-type opioid receptor (Mus musculus, UniProt P42866)
Sequence (P42866 whole entry): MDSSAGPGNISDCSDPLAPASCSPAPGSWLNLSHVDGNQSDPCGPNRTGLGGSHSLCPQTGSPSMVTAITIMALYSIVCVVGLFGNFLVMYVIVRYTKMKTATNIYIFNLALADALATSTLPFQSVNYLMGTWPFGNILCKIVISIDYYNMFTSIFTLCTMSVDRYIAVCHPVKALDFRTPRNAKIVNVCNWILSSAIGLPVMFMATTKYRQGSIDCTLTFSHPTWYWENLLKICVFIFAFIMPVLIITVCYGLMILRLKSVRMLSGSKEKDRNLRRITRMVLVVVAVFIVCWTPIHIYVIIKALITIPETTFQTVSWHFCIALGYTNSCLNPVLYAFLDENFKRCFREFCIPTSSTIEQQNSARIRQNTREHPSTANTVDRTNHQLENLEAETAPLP

Row | Compound | Ki
3 | C=CCN1CCC23c4c5ccc(O)c4O[C@@H]2C(=NNC(=O)c2ccccc2)CCC3(O)C1C5 (some centres not stated) | 0.2 nM and 0.12 nM
4 | COc1ccc2c3c1O[C@H]1C(=O)CC[C@@]4(O)[C@@H](C2)N(CC2CC2)CC[C@]314 | 20.3 nM and 21.2 nM
5 | CC(C)C[C@H](NC(=O)[C@H](Cc1ccccc1)NC(=O)CNC(=O)CNC(=O)[C@@H](N)Cc1ccc(O)cc1)C(=O)N[C@@H](CCCN=C(N)N)C(=O)N[C@@H](CCCN=C(N)N)C(=O)N[C@@H](CCC(N)=O)C(=O)N[C@@H](Cc1ccccc1)C(=O)N[C@@H](CCCCN)C(=O)N[C@H](C(=O)N[C@H](C(=O)N[C@H](C(=O)O)[C@@H](C)O)C(C)C)C(C)C [(Dynorphin)2-[2-(2-{2-[2-(2-{2-[2-Amino-3-(4-hydroxy-phenyl)-propionylamino]-acetylamino}-acetylamino)-3-phenyl-propionylamino]-4-methyl-pentanoylamino}-5-guanidino-pentanoylamino)-5-guanidino-pentanoylamino]-3-methyl-pentanoic acid] | 39.8 nM and 11.4 nM
6 | CC[C@H](C)[C@H](NC(=O)[C@H](C)NC(=O)[C@H](CC(N)=O)NC(=O)[C@H](CCCCN)NC(=O)[C@H](Cc1ccccc1)NC(=O)[C@H](CC(C)C)NC(=O)[C@@H](NC(=O)[C@@H](NC(=O)[C@H](CC(C)C)NC(=O)[C@@H]1CCCN1C(=O)[C@@H](NC(=O)[C@H](CCC(N)=O)NC(=O)[C@H](CO)NC(=O)[C@H](CCCCN)NC(=O)[C@H](CCC(=O)O)NC(=O)[C@H](CO)NC(=O)[C@@H](NC(=O)[C@H](CCSC)NC(=O)[C@H](Cc1ccccc1)NC(=O)CNC(=O)CNC(=O)[C@@H](N)Cc1ccc(O)cc1)[C@@H](C)O)[C@@H](C)O)C(C)C)[C@@H](C)O)C(=O)N[C@H](C(=O)N[C@@H](CCCCN)C(=O)N[C@@H](CC(N)=O)C(=O)N[C@@H](C)C(=O)N[C@@H](Cc1cnc[nH]1)C(=O)N[C@@H](CCCCN)C(=O)N[C@@H](CCCCN)C(=O)NCC(=O)N[C@@H](CCC(N)=O)C(=O)O)C(C)C [Beta-Endorphin] (H-YGGFMTSEKSQTPLVTLFKNAIVKNAHKKGQ-OH) | 10.9 nM and 3.22 nM
7 | NC(=O)CNC(=O)[C@H](Cc1c[nH]c2ccccc12)NC(=O)[C@@H]1CCCN1C(=O)[C@@H](N)Cc1ccc(O)cc1 [CAS_132632] (H-YPWG-NH2) | 18 nM and 44.7 nM
8 | CC(C)C[C@H](NC(=O)[C@H](Cc1ccccc1)NC(=O)CNC(=O)[C@@H](CO)NC(=O)[C@@H](N)Cc1ccc(O)cc1)C(=O)N[C@H](C(=O)O)[C@@H](C)O [DSLET-OH] | 20 nM and 10.8 nM
9 | CC[C@H](C)[C@H](NC(=O)[C@H](CCCNC(=N)N)NC(=O)[C@H](CCCNC(=N)N)NC(=O)[C@H](CC(C)C)NC(=O)[C@H](Cc1ccccc1)NC(=O)CNC(=O)CNC(=O)[C@@H](N)Cc1ccc(O)cc1)C(=O)N[C@@H](CCCNC(=N)N)C(=O)N1CCC[C@H]1C(=O)N[C@@H](CCCCN)C(=O)N[C@@H](CC(C)C)C(=O)N[C@@H](CCCCN)C(=O)N[C@@H](Cc1c[nH]c2ccccc12)C(=O)N[C@@H](CC(=O)O)C(=O)N[C@@H](CC(N)=O)C(=O)N[C@@H](CCC(N)=O)C(=O)O [Dynorphin A (1-17)] | 12.8 nM and 3.32 nM
10 | C=CCN1CC[C@]23CCCCC2[C@H]1Cc1ccc(O)cc13 (some centres not stated) [Levallorphan] | 0.97 nM and 0.96 nM
11 | CN1CCC23c4c5ccc(O)c4O[C@H]2[C@@H](OC2OC(C(=O)O)C(O)C(O)C2O)C=C[C@H]3[C@H]1C5 (some centres not stated) [Morphine 6-glucuronide] | 2.35 nM and 2.47 nM
12 | CSCC[C@H](NC(=O)[C@H](Cc1ccccc1)NC(=O)CNC(=O)CNC(=O)[C@@H](N)Cc1ccc(O)cc1)C(=O)N[C@@H](CCCNC(=N)N)C(=O)N[C@@H](Cc1ccccc1)C(=O)O [enkephalin-Met, Arg(6)-Phe(7)] (H-YGGFMRF-OH) | 30 nM and 13.4 nM
